Measured values: article PMC8632880, “Mitochondrial proteome of mouse oocytes and cisplatin-induced shifts in protein profile” (Acta Pharmacologica Sinica, 2021)

Target: T1, GST-HS90A (Mus musculus, UniProt P07901)
T1 construct: gene Hsp90aa1; mouse Hsp90aa1 coding region in pGEX-4T-1, N-terminal GST fusion (tag kept), expressed in E. coli, purified, RED-NHS labelled
Assay: microscale thermophoresis, RED-NHS labelled protein
Assay type: binding

## [NH2][Pt]([NH2])([Cl])[Cl] [cisplatin]
  Kd: 5.47 ± 0.2 µM
